Reference: BigSolDB 2.1

O=C1OC(=O)[C@H]2[C@@H]1[C@@H]1C=C[C@H]2O1
solubility (mole fraction)
Details	278.15 K	283.15 K	288.15 K	293.15 K	298.15 K	303.15 K	308.15 K	313.15 K	318.15 K	323.15 K
in 1,4-dioxane	–	–	0.0238	0.0288	0.0342	0.0414	0.052	0.0647	0.0857	0.134
in DMF	0.106	0.117	0.126	0.138	0.15	0.164	0.181	0.192	0.218	0.238
in NMP	0.133	0.144	0.155	0.17	0.184	0.199	0.211	0.235	0.256	0.277
in acetone	0.038	0.0434	0.0483	0.0556	0.0629	0.0717	0.0818	0.0932	0.107	0.125
in acetonitrile	0.0308	0.0353	0.0393	0.0453	0.0508	0.0576	0.0667	0.078	0.0887	0.109
in ethyl acetate	0.0157	0.0179	0.0207	0.0234	0.0275	0.031	0.0363	0.0414	0.0482	0.0569
in isobutyl acetate	0.00929	0.011	0.0122	0.0143	0.0165	0.0189	0.022	0.0248	0.0283	0.0324
in isopentyl acetate	0.00727	0.00841	0.00971	0.011	0.0129	0.0147	0.0168	0.0196	0.0214	0.0251
in isopropyl acetate	0.0101	0.0126	0.014	0.0164	0.0191	0.022	0.0255	0.0295	0.0335	0.0395
in methyl acetate	0.0236	0.0281	0.031	0.0368	0.042	0.0496	0.0582	0.0687	0.0806	0.0965
in n-butyl acetate	0.00989	0.0115	0.0129	0.0149	0.0172	0.0196	0.0226	0.0258	0.0285	0.0339
in n-pentyl acetate	0.00784	0.00916	0.0105	0.012	0.0137	0.0158	0.018	0.0205	0.0231	0.0264
in n-propyl acetate	0.012	0.0135	0.0159	0.0179	0.021	0.0244	0.0277	0.033	0.0388	0.0435
